US20250319053A1, “INHIBITORS OF THE PEPTIDYL-PROLYL CIS/TRANS ISOMERASE (PIN1), COMBINATIONS AND USES THEREOF” (DANA-FARBER CANCER INSTITUTE, INC., priority 2021, published 2025)

Assays:
advanced PDAC patients = conditions: cited from earlier work
[1] = Body weight of Pin1i-2 treated non-tumor-bearing B6 mice; format: in vivo, mouse; conditions: Day 0 = 100
Experimental: Table 1 is a table of blood test results together with body weight of Pin1i−2 treated non-tumor-bearing B6 mice. See also FIG. 1A-FIG. 1G, FIG. 8A-FIG. 8O, and FIG. 9A-9L. WT B6 mice (non-tumor-bearing mice) were treated with vehicle or Pin1i−2 (20, 40, or 60 mg/kg, i.p., daily) for 5 weeks, followed by examining mice body weight or the RBC, Hb, Plate, and kidney and liver function using blood tests at 3 weeks and 5 weeks (n=5).

splenocytes = test: Immune profiling of splenocytes by flow cytometry; format: in vivo, mouse; conditions: 40 mg/kg i.p. daily for 5 weeks
Experimental: After filtered, cell lysate was collected. To assess cell surface expressions, cells were harvested by non-enzymatic cell dissociation solution, and resuspend in blocking solution (Cell Staining Buffer, BioLegend). Cells were incubated with following antibodies; […] For FOXP3 staining, cells were fixed and permeabilized using Foxp3/Transcription Factor Staining Buffer Set (00-5523, eBioscience), and incubated with FOXP3-FITC (11-5773-82, Invitrogen) for 30 mins at RT. For Granzyme B staining, cells were fixed and permeabilized using Intracellular Fixation & Permeabilization Kit (88-8824-00, eBioscience), and incubated with Granzyme B-FITC (515403, BioLegend) for 30 mins at RT. All antibodies were diluted according to manufacture instruction. Cells were analyzed using CytoFLEX flow cytometer and CytExpert software (Beckman Coulter, IN, USA). Table 2 is a table of immune profiling of splenocytes from Pin1i−2 treated non-tumor-bearing B6 mice. See also FIG. 1A-FIG. 1G, FIG. 8A-FIG. 8O, and FIG. 9A-9L. WT B6 mice (non-tumor-bearing mice) were treated with vehicle or Pin1i−2 (40 mg/kg, i.p., daily) for 5 weeks, followed by examining the immune profile of splenocytes using flow cytometry (n=5).

[2] = system: human PDAC cells (PDAC1 and PDAC2); test: Cell proliferation assay (CellTiter-Glo) in PDAC cells; format: cell-based; conditions: 72 hrs
Experimental: (§1) Cells were seeded at a density of 5000 cells (PDAC1 and PDAC2), or 3000 cells (CAF1 and CAF2) per well in 96-well flat-bottomed plates and incubated for 24 h in culture medium. […] Control cells received dimethyl sulfoxide (DMSO) at a concentration equal to that of drug-treated cells for 72 hours. The cell viability was determined by CellTiter-Glo® 2.0 Assay (Promega) following the manufacturer's instructions.

[3] = system: primary human CAFs (CAF1 and CAF2); test: Cell proliferation assay (CellTiter-Glo) in CAFs; format: cell-based; conditions: 72 hrs
Experimental: as §1

human PDAC organoids = test: Organoid apoptosis assay, co-culture with activated human PBMCs; format: cell-based; conditions: Pin1i−2 at 5 μM 3 days, αPD1 at 200 μg/mL for 40 hrs
Experimental: For assaying the effects of Pin1 inhibition on anti-PD1 or PDL1 sensitivity, organoids and PBMCs were co-culture as described previously (Dijkstra et al., 2018; Jiao et al., 2017). […] Human PBMCs (Precision for Medicine) were stimulated by PDAC organoid culture media, and 8.0×10^4 PBMCs were incubated with 2 pl CD3/28 beads (11161D, GIBCO) and 30 U recombinant IL-2 (200-02, Peprotech) per well in 96-well plates for 24 hours before starting co-culture. […] At the start of co-culture, a green-fluorescent caspase 3/7 probe reagent (R37111, Invitrogen) and Hoechst (135102, Invitrogen) were added to visualize cells undergoing apoptosis. Apoptotic organoids were monitored by live-cell time lapse imaging was started 2 hours after the start of co-culture using BZ-X800 fluorescence microscope (KEYENCE) and quantified using BZ-X800 analyzer (ver. 1.1.1.8, KEYENCE). […] Synergy scores were calculated by Synergyfinder ver 2 (synergyfinder.fimm.fi/) (Ianevski et al., Nucleic Acids Res. 48 IW1), […]-[…] (2020)).

SMILES: Nc1ccn([C@@H]2O[C@H](CO)[C@@H](O)C2(F)F)c(=O)n1 [GEM, gemcitabine, reference compound]
- overall survival (OS) (advanced PDAC patients): 6.6 month
- response rate (advanced PDAC patients): 23.8%

SMILES: CC(C)(C)CN(C(=O)CCl)C1CCS(=O)(=O)C1 (stereo not drawn) [Pin1i−2, sulfopin]
- Body weight ([1]; 20 mg/kg i.p. daily, 3 weeks): 105.5371%
- Body weight ([1]; 20 mg/kg i.p. daily, 5 weeks): 107.5%
- Body weight ([1]; 40 mg/kg i.p. daily, 3 weeks): 107.9%
- Body weight ([1]; 40 mg/kg i.p. daily, 5 weeks): 106.7%
- Body weight ([1]; 60 mg/kg i.p. daily, 3 weeks): 104.8%
- Body weight ([1]; 60 mg/kg i.p. daily, 5 weeks): 107.3%
- CD3−CD11b+ Myeloid cells (splenocytes; n=5): 6.79 % of CD45+ cell
- CD8a+ T-cell (splenocytes; n=5): 14.30 % of CD45+ cell
- CD11b+Ly6G+ Myeloid Cells (splenocytes; n=5): 1.71 % of CD45+ cell
- CD11c+MHC-II+ DCs (splenocytes; n=5): 1.48 % of CD45+ cell
- CD45+CD3+ Cells (splenocytes; n=5): 27.77 % of CD45+ cell
- F4/80+ Macrophages (splenocytes; n=5): 3.54 % of CD45+ cell
- CTLA4 (splenocytes; listed under CD8a+ T-cell): 76.08 MFI
- Lag3 (splenocytes; listed under CD8a+ T-cell): 449.84 MFI
- MHC-ClassI (splenocytes; listed under CD8a+ T-cell): 11456.80 MFI
- PD-1 (splenocytes; listed under CD8a+ T-cell): 67.90 MFI
- PD-L1 (splenocytes; listed under CD11b+Ly6G+ Myeloid Cells): 12447.46 MFI
- PD-L1 (splenocytes; listed under CD11c+MHC-II+ DCs): 89012.88 MFI
- cell growth (proliferation assay) ([2]; PDAC cells): dose-dependently suppress cell growth
- Pin1 KO cell growth ([2]; Pin1-KO PDAC2 cells): fails to suppress Pin1 KO cell growth
- CAF proliferation (cell growth) [3]: suppression of CAF proliferation
- apoptosis of WT organoids (human PDAC organoids): promoted the apoptosis of WT organoids
